In patent publication US20210300926A1, “NEW BETA-LACTAMASE INHIBITORS TARGETING GRAM NEGATIVE BACTERIA” (priority 2017, published 2021):
Read-outs that look alike come from different tables or passages of the source.

What was measured:
E. coli Top10 = test: MIC determination by microdilution, E. coli Top10 without β-lactamase (None); assay type: cell-based
From the text: (§1) Plasmid and strain construction. For antibiotic susceptibility testing, the R-lactamase genes were cloned into the vector pTRC-99k, which is a derivative of pTRC99a (Pharmacia) obtained by replacing the β-lactamase resistance gene by a kanamycin resistance gene (Km, lacl, pTRC promoter, oriVcolEl; D. Mengin-Lecreulx, unpublished). Recombinant plasmids were introduced by electrotransformation into Escherichia coli Top10. For β-lactamase production, fragments of the β-lactamase genes encoding soluble enzymes, i.e. devoid of the signal peptides, were cloned into the vector pET-TEV generating translational fusions with a vector-encoded N-terminal 6×His Tag followed by a TEV cleavage site ([…]) (1).
(§2) MIC determination. MICs of β-lactams were determined by the microdilution method in MH broth according to Clinical and Laboratory Standards Institute (CLSI) recommendations (12). Diazabicyclooctane were used at a fixed concentration of 15 μM (4 μg/ml for avibactam). Clavulanate was tested at 4 μg/ml. IPTG (500 μM) was added to the microdilution plates to induce production of the -lactamase. The precultures were grown in BHI broth containing IPTG (500 μM) and kanamycin (50 μg/ml) for plasmid maintenance. Reported MICs are the medians from five biological repeats obtained in two independent experiments.

[1] = system: E. coli Top10 producing CTX-M15; test: MIC determination by microdilution, E. coli Top10 producing CTX-M15; assay type: cell-based, Escherichia coli; conditions: for reduction in the MICs of β-lactams (in words): E. coli Top10 producing CTX-M-15, summary of Table 1
From the text: as §1, §2

[2] = system: E. coli Top10 producing TEM-1; test: MIC determination by microdilution, E. coli Top10 producing TEM-1; assay type: cell-based; conditions: Escherichia coli, read-out: MIC of β-lactam, inhibitor None
From the text: as §1, §2

[3] = system: E. coli Top10 producing AmpCEcl; test: MIC determination by microdilution, E. coli Top10 producing AmpCEcl; assay type: cell-based; conditions: Escherichia coli, read-out: MIC of β-lactam, inhibitor None
From the text: as §1, §2

[4] = system: E. coli Top10 producing KPC-2; assay type: cell-based, Escherichia coli; conditions: summary of Table 1
KPC-2 = target: T1, KPC-2 (Klebsiella pneumoniae, UniProt Q9F663); test: Kinetic parameters of β-lactamase carbamoylation/de-carbamoylation (nitrocefin), KPC-2; assay type: biochemical; conditions: KPC-2; 20° C., nitrocefin 100 μM, MES pH 6.4
T1 construct: fragments of the β-lactamase genes encoding soluble enzymes, i.e. devoid of the signal peptides; 6xHis tag followed by TEV cleavage site ([…]) (N); made in house; host or cells: E. coli BL21 (DE3)
T1 sequence (Q9F663 25-293 limits assumed): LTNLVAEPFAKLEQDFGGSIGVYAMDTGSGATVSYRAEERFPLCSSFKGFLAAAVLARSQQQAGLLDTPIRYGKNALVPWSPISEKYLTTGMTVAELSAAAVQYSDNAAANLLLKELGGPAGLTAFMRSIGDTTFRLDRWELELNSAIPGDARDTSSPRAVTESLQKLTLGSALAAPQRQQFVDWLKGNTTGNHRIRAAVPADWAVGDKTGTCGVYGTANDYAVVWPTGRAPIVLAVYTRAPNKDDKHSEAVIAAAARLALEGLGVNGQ
From the text: as §1
(§3) Production and purification of β-lactamases. E. coli BL21 (DE3) harboring recombinant plasmids were grown in brain heart infusion (BHI) broth supplemented with kanamycin (50 μg/ml) at 37° C. under vigorous shaking until the optical density at 600 nm (OD600) reached 0.8. Isopropyl β-D-1-thiogalactopyranoside IPTG (0.5 mM) was added and incubation was continued at 16° C. for 18 h. Bacteria were harvested by centrifugation, re-suspended in 25 mM Tris-HCl (pH 7.5) containing 300 mM NaCl (buffer A) and lysed by sonication. The enzymes were purified from clarified lysates by affinity chromatography (NiNTA agarose, Sigma-Aldrich) and size exclusion chromatography in buffer A (Superdex 200 HL26/60, Amersham Pharmacia Biotech). Protein concentration was determined by the Biorad protein assay using bovine serum albumin as a standard.
(§4) Determination of kinetic parameters. […] Briefly, the initial velocity (vi) was determined by spectrophotometry for various concentrations of β-lactams [S] and a fixed concentration of β-lactamase [E]. The values of vi were plotted as a function of [S]. The kinetic constants Km and kcat were determined by fitting the equation […] to the resulting curve. The molecular extinction coefficient was 14,600 M^−1 cm^−1 at 486 nm for nitrocefin. […] Kinetics constants were deduced from a minimum of 6 progress curves obtained in a minimum of two independent experiments.

CTX-M-15 = target: T2, CTX-M-15 (Escherichia coli, UniProt Q9EXV5); test: Kinetic parameters of β-lactamase carbamoylation/de-carbamoylation (nitrocefin), CTX-M-15; assay type: biochemical; conditions: CTX-M-15; 20° C., nitrocefin 100 μM, MES pH 6.4
T2 construct: fragments of the β-lactamase genes encoding soluble enzymes, i.e. devoid of the signal peptides; made in house; host or cells: E. coli BL21 (DE3)
T2 sequence (Q9EXV5 entry or part of it): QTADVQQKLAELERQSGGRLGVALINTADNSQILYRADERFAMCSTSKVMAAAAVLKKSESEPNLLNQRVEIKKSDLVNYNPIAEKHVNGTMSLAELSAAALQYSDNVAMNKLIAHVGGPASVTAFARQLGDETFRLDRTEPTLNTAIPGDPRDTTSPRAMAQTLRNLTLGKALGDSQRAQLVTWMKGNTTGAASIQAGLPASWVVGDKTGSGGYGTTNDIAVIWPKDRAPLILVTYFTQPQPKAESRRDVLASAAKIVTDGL
From the text: as §1, §3, §4

TEM-1 = target: T3, TEM-1 (Escherichia coli, UniProt P62593); test: Kinetic parameters of β-lactamase carbamoylation/de-carbamoylation (nitrocefin), TEM-1; assay type: biochemical; conditions: 20° C., nitrocefin 100 μM, MES pH 6.4
T3 construct: fragments of the β-lactamase genes encoding soluble enzymes, i.e. devoid of the signal peptides; made in house; host or cells: E. coli BL21 (DE3)
T3 sequence (P62593 24-286 limits assumed): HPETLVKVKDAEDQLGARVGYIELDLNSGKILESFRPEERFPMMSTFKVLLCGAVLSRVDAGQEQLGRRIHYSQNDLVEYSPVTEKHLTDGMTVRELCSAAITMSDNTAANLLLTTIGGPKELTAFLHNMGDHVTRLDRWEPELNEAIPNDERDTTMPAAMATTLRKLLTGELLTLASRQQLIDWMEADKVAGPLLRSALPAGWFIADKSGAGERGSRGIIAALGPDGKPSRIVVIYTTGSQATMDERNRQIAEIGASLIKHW
From the text: as §1, §3, §4

AmpCEclo = target: T4, AmpCEclo (Enterobacter cloacae, UniProt P05364); assay type: biochemical; conditions: AmpCEclo; 20° C., nitrocefin 100 μM, MES pH 6.4
T4 construct: fragments of the β-lactamase genes encoding soluble enzymes, i.e. devoid of the signal peptides; 6xHis tag followed by TEV cleavage site ([…]) (N); made in house; host or cells: E. coli BL21 (DE3)
T4 sequence (P05364 21-381): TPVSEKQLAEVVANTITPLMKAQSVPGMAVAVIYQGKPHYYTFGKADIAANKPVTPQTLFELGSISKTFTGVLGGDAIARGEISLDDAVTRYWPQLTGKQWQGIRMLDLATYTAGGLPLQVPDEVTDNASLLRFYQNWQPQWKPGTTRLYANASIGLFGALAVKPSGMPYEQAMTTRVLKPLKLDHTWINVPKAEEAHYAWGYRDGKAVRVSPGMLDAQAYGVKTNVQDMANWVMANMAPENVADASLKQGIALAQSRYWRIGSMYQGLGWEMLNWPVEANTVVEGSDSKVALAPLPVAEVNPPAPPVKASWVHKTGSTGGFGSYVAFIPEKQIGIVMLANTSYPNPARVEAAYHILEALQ
Description: as §3, §4

[5] = system: E. coli Top10 producing OXA-48; test: MIC determination by microdilution, E. coli Top10 producing OXA-48; assay type: cell-based; conditions: Escherichia coli, read-out: MIC of β-lactam, inhibitor None
From the text: as §1, §2

| SMILES | reduction in the MICs of β-lactams (in words) [4] | reduction in the MICs of β-lactams (in words) [1] | Carbamoylation efficacy of β-lactamases by diazabicyclooctanes (KPC-2) | De-carbamoylation rate constant k−2 for β-lactamase-diazabicyclooctane adducts (KPC-2) | Carbamoylation efficacy of β-lactamases by diazabicyclooctanes (CTX-M-15) | De-carbamoylation rate constant k−2 for β-lactamase-diazabicyclooctane adducts (CTX-M-15) | Carbamoylation efficacy of β-lactamases by diazabicyclooctanes (TEM-1) | De-carbamoylation rate constant k−2 for β-lactamase-diazabicyclooctane adducts (TEM-1) | Carbamoylation efficacy of β-lactamases by diazabicyclooctanes (AmpCEclo) | De-carbamoylation rate constant k−2 for β-lactamase-diazabicyclooctane adducts (AmpCEclo) | further results |
| --- | --- | --- | --- | --- | --- | --- | --- | --- | --- | --- | --- |
| CC1(C)S[C@@H]2[C@H](NC(=O)[C@H](N)c3ccc(O)cc3)C(=O)N2[C@H]1C(=O)O [Amoxicillin, reference compound] | – | – | – | – | – | – | – | – | – | – | MIC (E. coli Top10; Escherichia coli, TOP10, read-out: MIC of β-lactam, inhibitor None): 4 µg/mL; MIC ([1]; Escherichia coli, read-out: MIC of β-lactam, inhibitor None): 2050 µg/mL |
| C[C@H]1[C@H](NC(=O)/C(=N\OC(C)(C)C(=O)O)c2csc(N)n2)C(=O)N1S(=O)(=O)O [Aztreonam] | – | – | – | – | – | – | – | – | – | – | MIC (E. coli Top10; Escherichia coli, TOP10; read-out: MIC of β-lactam, inhibitor None): 0.5 µg/mL |
| Cn1nnnc1SCC1=C(C(=O)O)N2C(=O)[C@@H](NC(=O)[C@H](O)c3ccccc3)[C@H]2SC1 [Cefamandole] | – | – | – | – | – | – | – | – | – | – | MIC (E. coli Top10; Escherichia coli; Cefamandole alone; E. coli Top10, β-lactamase None; read-out: MIC of β-lactam, inhibitor None): 2 µg/mL; MIC [2]: > 2050 µg/mL |
| CO/N=C(\C(=O)N[C@@H]1C(=O)N2C(C(=O)O)=C(COC(C)=O)CS[C@H]12)c1csc(N)n1 [Cefotaxime] | – | – | – | – | – | – | – | – | – | – | MIC (E. coli Top10; Escherichia coli; Cefotaxime alone; E. coli Top10, β-lactamase None; read-out: MIC of β-lactam, inhibitor None): 0.12 µg/mL; MIC [3]: 128 µg/mL |
| COCc1cn(C[C@@H]2CC[C@@H]3CN2C(=O)N3OS(=O)(=O)[O-])nn1.[Na+] [Compound 1a.i13] | Minor reduction | Minor reduction | (1.8 ± 0.2) × 10^1 M^−1 s^−1 | (1.2 ± 0.1) × 10^−3 s−1 | (1.2 ± 0.4) × 10^2 M^−1 s^−1 | (1.3 ± 1.3) × 10^−3 s−1 | (8.3 ± 0.5) × 10^2 M^−1 s^−1 | (1.6 ± 0.5) × 10^−3 s−1 | (1.5 ± 0.5) × 10^1 M^−1 s^−1 | (1.3 ± 0.6) × 10^−3 s−1 | – |
| O=C(O)CCc1cn(C[C@@H]2CC[C@@H]3CN2C(=O)N3OS(=O)(=O)[O-])nn1.[Na+] [Compound 1a.i14] | Minor reduction | Minor reduction | (7.0 ± 0.8) × 10^1 M^−1 s^−1 | (7.9 ± 1.7) × 10^−4 s−1 | (1.1 ± 0.1) × 10^2 M^−1 s^−1 | (3.9 ± 0.8) × 10^−4 s−1 | (7.2 ± 0.6) × 10^2 M^−1 s^−1 | (8.2 ± 8.9) × 10^−4 s−1 | (9.9 ± 0.9) × 10^1 M^−1 s^−1 | (1.6 ± 0.2) × 10^−3 s−1 | – |
| C[Si](C)(C)c1cn(C[C@@H]2CC[C@@H]3CN2C(=O)N3OS(=O)(=O)O)nn1 [Compound 2a.i] | Minor reduction | Minor reduction | (9.7 ± 0.8) × 10^1 M^−1 s^−1 | (2.9 ± 0.2) × 10^−3 s−1 | (4.0 ± 0.1) × 10^2 M^−1 s^−1 | (3.9 ± 0.9) × 10^−4 s−1 | (3.7 ± 0.5) × 10^2 M^−1 s^−1 | (2.9 ± 0.9) × 10^−3 s−1 | (2.4 ± 0.1) × 10^1 M^−1 s^−1 | (1.3 ± 0.9) × 10^−3 s−1 | – |
| C[C@@H](O)[C@H]1C(=O)N2C(C(=O)O)=C(S[C@@H]3CN[C@H](C(=O)Nc4cccc(C(=O)O)c4)C3)[C@H](C)[C@H]12 [Ertapenem] | – | – | – | – | – | – | – | – | – | – | MIC (E. coli Top10; Escherichia coli; Ertapenem alone; E. coli Top10, β-lactamase None; read-out: MIC of β-lactam, inhibitor None): < 0.03 µg/mL; MIC [5]: 16 µg/mL |
